Where “and” joins values, the source holds several entries; their conditions need not be identical. Identical values can stand only once.
Key:
HCT116 Parental = assay: Single agent proliferation assay (CellTiter-Glo, 72 h); assay type: cell-based, human
Description: (§1) Cells were seeded in 96-well plates at the densities and media conditions indicated in Table 11 in McCoy's 5A containing either 10% FBS or 1% charcoal-stripped FBS (CS-FBS), and allowed to adhere overnight prior to addition of compound or vehicle control. Compounds were prepared from DMSO stocks to give the desired final concentrations. The final DMSO concentration was constant at 0.1%. Test compounds were incubated with the cells for 72 h at 37° C., 5% CO2 in a humidified atmosphere. CellTiter-Glo® reagent (Promega, Madison, Wis.) was added according to manufacturer's instructions and luminescence detected using the BMG FLUOstar plate reader (BMG Labtech, Ortenberg, Germany). The average media only background value was deducted and the data analysed using a 4-parameter logistic equation in GraphPad Prism (GraphPad Software, La Jolla, Calif.).

HCT116 PIK3CA (+/−) = assay: as above; assay type: cell-based, human
Description: as §1, with “Compounds were prepared from DMSO stocks to give the desired final concentrations.” left out

[1] = tested on: HCT116 human colorectal carcinoma xenograft; assay: HCT116 xenograft tumor growth delay (TGD) study; assay type: in vivo, mice
Description: Female athymic nude mice (Crl:NU(Ncr)-Foxn1^nu, Charles River) were eight weeks old with a body weight (BW) range of 14.6 to 25.7 grams on Day 1 of the study. The animals were fed ad libitum water (reverse osmosis, 1 ppm Cl), and NIH 31 Modified and Irradiated Lab Diet® consisting of 18.0% crude protein, 5.0% crude fat, and 5.0% crude fiber. The mice were housed on irradiated Enrich-O'Cobs™ Laboratory Animal Bedding in static microisolators on a 12-hour light cycle at 20-22° C. (68-72° F.) and 40-60% humidity.
HCT116 human colon carcinoma cells were cultured in RPMI-1640 medium supplemented with 10% fetal bovine serum, 2 mM glutamine, 100 units/mL penicillin G sodium, 100 μg/mL streptomycin sulfate, and 25 μg/mL gentamicin. The tumor cells were grown in tissue culture flasks in a humidified incubator at 37° C., in an atmosphere of 5% CO2 and 95% air.
The HCT116 cells used for implantation were harvested during exponential growth and resuspended in 50% Matrigel (BD Biosciences): 50% phosphate buffered saline at a concentration of 2.5×10^7 cells/mL. On the day of tumor implant, each test mouse was injected subcutaneously in the right flank with 5×10^6 cells (0.2 mL cell suspension), and tumor growth was monitored as the average size approached the target range of 100 to 150 mm^3. Tumors were measured in two dimensions using calipers, and volume was calculated using the formula: Tumor Volume (mm^3)=(w^2×l)/2 where w=width and l=length, in mm, of the tumor. Tumor weight may be estimated with the assumption that 1 mg is equivalent to 1 mm^3 of tumor volume.
Ten days after tumor implantation, designated as Day 1 of the study, the animals were sorted into nine groups (Groups 1-9) each consisting of fifteen mice and one group (Group 10) consisting of ten mice.
BVD-523 doses were prepared by suspending the required amount of BVD-523 powder in 1% carboxymethyl cellulose (CMC) in deionized water (“Vehicle”). A 10 mg/mL BVD-523 stock was prepared, and was used to dose the 100 mg/kg BVD-523 group. Aliquots of the stock were diluted with the vehicle to a concentration of 5.0 mg/mL, which provided a 50 mg/kg BVD-523 dosage in a dosing volume of 10 mL/kg. The BVD-523 doses were stored at 4° C. for up to one week. The 1% CMC vehicle was used to dose the control group.
Paclitaxel (Lot CP2N10007) was purchased as a dry powder from Phyton Biotech, LLC (Fort Worth, Tex.). A paclitaxel stock solution (30 mg/mL) in 50% ethanol: 50% Cremophor EL was prepared and stored at room temperature protected from light during the dosing period. On each day of dosing, an aliquot of the paclitaxel stock was diluted with 5% dextrose in water (D5W) to yield a 3.0 mg/mL paclitaxel dosing solution in a vehicle consisting of 5% ethanol: 5% Cremophor EL: 90% D5W.
On Day 1 of the study, mice were sorted into nine groups (Group 1-9) each consisting of fifteen mice and one group (Group 10) consisting of ten mice, and dosing was initiated according to the treatment plan summarized in Table 4 below. All doses were given by oral gavage (p.o.) except paclitaxel, which was given i.v. For each agent, the dosing volume of 10 mL/kg (0.2 mL per 20 grams of BW) was scaled to the BW of the individual animal. […] For bid dosing, dosing was initiated in the afternoon of Day 1, so that one dose was given on the first day (“first day 1 dose”).
Group 1 received 1% CMC vehicle p.o. bid to end, and served as the control group for calculation of % TGD. Group 10 received paclitaxel i.v. at 30 mg/kg once every other day (qod) for five doses (qod×5), and served as the positive control for the model.
Groups 4 and 5 received 50 and 100 mg/kg BVD-523, respectively, p.o. bid to end.

[2] = Toxicity (body weight, deaths, clinical signs) in the HCT116 xenograft study; assay type: in vivo, mice; details: Group 10: Paclitaxel 30 mg/kg iv qod x 5
Description: Animals were weighed daily on Days 1-5, then twice per week until completion of the study. The mice were observed frequently for overt signs of any adverse, TR side effects, and clinical signs were recorded when observed. Individual BW loss was monitored as per protocol, and any animal whose weight exceeded the limits for acceptable BW loss was euthanized. Group mean BW loss also was monitored as per protocol. Dosing was to be suspended in any group that exceeded the limits for acceptable mean BW loss. If mean BW recovered, then dosing was to be resumed in that group, but at a lower dosage or less frequent dosing schedule. Acceptable toxicity for the maximum tolerated dose (MTD) was defined as a group mean BW loss of less than 20% during the study and not more than 10% TR deaths. A death was classified as TR if attributable to treatment side effects as evidenced by clinical signs and/or necropsy, or may also be classified as TR if due to unknown causes during the dosing period or within 14 days of the last dose. A death was classified as NTR if there was no evidence that death was related to treatment side effects. NTR deaths may be further characterized based on cause of death. A death was classified as NTRa if it resulted from an accident or human error. […] A death was classified as NTRu if the cause of death was unknown and there was no available evidence of death related to treatment side effects, metastasis, accident or human error, although death due to treatment side effects cannot be excluded.

parental HCT116 cells = assay: Combination proliferation assay (Loewe/Bliss); assay type: cell-based; details: Homo sapiens, HCT-116, 2.5% serum, mean of n=4 separate combinations, read-out: IC50 (single agent, derived from combination assay plates)
Description: Cells were seeded into triplicate 96-well plates at the densities indicated in Table 11 in McCoy's 5A media containing 2.5% FBS and allowed to adhere overnight prior to addition of test compound or vehicle control. Combinations were tested using either a 10×8 or for the follow-up HCT116 study a 3×1 dose matrix.
Test compounds were incubated with the cells for 72 h at 37° C., 5% CO2 in a humidified atmosphere. CellTiter-Glo® reagent (Promega, Madison, Wis.) was added according to manufacturer's instructions and luminescence detected using the BMG FLUOstar plate reader (BMG Labtech, Ortenberg, Germany). The average media only background value was deducted and the data analysed.
For the 10×8 combination assays the combination interactions across the dose matrix were determined by the Loewe Additivity and Bliss independence models using Chalice™ Combination Analysis Software (Horizon Discovery Group, Cambridge, Mass.) as outlined in the user manual (available at chalice.horizondiscovery.com/chalice-portal/documentation/analyzer/home.jsp). Synergy is determined by comparing the experimentally observed level of inhibition at each combination point with the value expected for additivity, which is derived from the single-agent responses along the edges of the matrix. […]

[3] = tested on: HCT116 PIK3CA (+/−) cells; assay: Combination proliferation assay (Loewe/Bliss); assay type: cell-based, human; details: Homo sapiens, HCT-116, read-out: IC50 (single agent, derived from combination assay plates)
Description: Test compounds were incubated with the cells for 72 h at 37° C., 5% CO2 in a humidified atmosphere. CellTiter-Glo® reagent (Promega, Madison, Wis.) was added according to manufacturer's instructions and luminescence detected using the BMG FLUOstar plate reader (BMG Labtech, Ortenberg, Germany). The average media only background value was deducted and the data analysed. For the 10×8 combination assays the combination interactions across the dose matrix were determined by the Loewe Additivity and Bliss independence models using ChaliceTM Combination Analysis Software (Horizon Discovery Group, Cambridge, Mass.) as outlined in the user manual (available at chalice.horizondiscovery.com/chalice-portal/documentation/analyzer/home.jsp). Synergy is determined by comparing the experimentally observed level of inhibition at each combination point with the value expected for additivity, which is derived from the single-agent responses along the edges of the matrix. Potential synergistic interactions were identified by displaying the calculated excess inhibition over that predicted as being additive across the dose matrix as a heat map, and by reporting a quantitative 'Synergy Score' based on the Loewe model. The single agent data derived from the combination assay plates were presented as dose-response curves generated in GraphPad Prism (GraphPad Software, La Jolla, Calif.) (plotted using percentage viability relative to DMSO only treated controls). […] (Cbliss is the fractional inhibition that would be expected if the combination of the two drugs were exactly additive). Cbliss values were then subtracted from the experimentally observed fractional inhibition values to give an 'excess over Bliss' value which were plotted as heat maps±SD.

[4] = Homo sapiens, HCT-116, 72 h, 1% CS-FBS
[5] = Homo sapiens, HCT-116, 72 h, 10% FBS
[6] = Group 1 (vehicle) vs Group 10 (Paclitaxel 30 mg/kg iv qod x 5)
[7] = Group 10: Paclitaxel 30 mg/kg iv qod x 5

| Compound | IC50 (HCT116 Parental; [4]) [nM] | IC50 (HCT116 Parental; [5]) [nM] | IC50 (HCT116 PIK3CA (+/−); [4]) [nM] | IC50 (HCT116 PIK3CA (+/−); [5]) [nM] | other results |
| --- | --- | --- | --- | --- | --- |
| COc1ccc(-c2cc3c(C)nc(N)nc3n([C@H]3CC[C@H](OCCO)CC3)c2=O)cn1 [PF-04691502] |  |  |  |  | IC50 (HCT116 Parental; 1% CS-FBS): 70 nM; IC50 (HCT116 Parental; 10% FBS): 290 nM; IC50 (HCT116 PIK3CA (+/−); 1% CS-FBS): 1540 nM; IC50 (HCT116 PIK3CA (+/−); 10% FBS): 420 nM |
| CC(C)n1nc(-c2ccc3oc(N)nc3c2)c2c(N)ncnc21 [INK128] | 30 | 50 | 20 | 70 |  |
| CS(=O)(=O)N1CCN(Cc2cc3nc(-c4cccc5[nH]ncc45)nc(N4CCOCC4)c3s2)CC1 [GDC-0941, pictilisib] | 60 | 1530 |  |  |  |
| CC(=O)O[C@H]1C(=O)[C@@]2(C)[C@H]([C@H](OC(=O)c3ccccc3)[C@]3(O)C[C@H](OC(=O)[C@H](O)[C@@H](NC(=O)c4ccccc4)c4ccccc4)C(C)=C1C3(C)C)[C@]1(OC(C)=O)CO[C@@H]1C[C@@H]2O [Paclitaxel, reference compound] | 3 | 2 | 3 | 2 | Are survival curves diff.? [1, 6]: Yes; Logrank test Chi square [1, 6]: 24.03; % TGD [1, 7]: 38%; MTV (n): number of animals on D 45 (45-day survivors) [1, 7]: (10); MTV D 45 (median tumor volume) [1, 7]: 688 mm^3; Median TTE [1, 7]: 45.0 days; Regressions CR [1, 7]: 0; Regressions PR [1, 7]: 8/10 and 8; Regressions TFS [1, 7]: 0; T − C [1, 7]: 12.3 days; Deaths NTR [2]: 0; Deaths TR [2]: 0 |
| Nc1cc(C(F)(F)F)c(-c2cc(N3CCOCC3)nc(N3CCOCC3)n2)cn1 [BKM120] | 530 | 620 | 1030 | 520 |  |
| O=C(Nc1ccc2[nH]nc(-c3ccncc3)c2c1)[C@@H]1CCN(CC(=O)N2CCN(c3ccc(-c4ncccn4)cc3)CC2)C1 [SCH772984] | 30 | 140 | 10 | 80 | IC50 (parental HCT116 cells): 210 nM; IC50 [3]: 30 nM |

Source: patent publication US11007183B2, “Cancer treatments using combinations of PI3K/Akt pathway and ERK inhibitors” (BIOMED VALLEY DISCOVERIES, INC., priority 2013, dated 2021)
